Assay results taken from US11298314B2, “Injectable composition for localized fat reduction without pain, edema, and side effects, and method for preparing same” (AMI PHARM CO., LTD., priority 2017, dated 2022).
Entries after “also recorded” stand apart in the source; their conditions may differ.

Assays:
[1] = test system: 3T3-L1 adipocytes; experiment: Lipolysis assay (glycerol release); assay type: cell-based; conditions: 48 hours; listed as GCA single
Protocol: The glycerol activity assay was performed with the test materials to determine whether the cell death in the MTT assay was due to necrosis or lipolysis. Glycerol is a specific marker that increases when fat breaks down. Abcam Lipolysis Assay Kit (Colorimetric) was used according to the manufacturer's manual, and the method of the test was as follows: […] And then the lysis was induced. […] After adding the glycerol assay complex (50 μl) thereto, the solution was incubated at room temperature for 30 minutes. Absorbance was measured at OD 570 (using standard curve for absolute determination).

[2] = test system: paw of the rats; experiment: Rat paw edema; assay type: in vivo, Sprague Dawley rats; conditions: for degree of edema in words: 2 hours after administration, rat paw; for degree of edema, 1 hour after administration / degree of edema, 2 hours after administration / degree of edema, Immediately after administration: 0.1 ml into rat paw
Summary of the method: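 Male Sprague Dawley rats (6 weeks old, 170–200 g) received 0.1 ml of PBS or test composition into the paw. Paw thickness measured by caliper before, immediately after, and 1 or 2 h post-injection; edema graded 0–4, with injection-site skin lesions photographed.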

[3] = Formulation stability of PPC injectable preparations: property, transparency, particle size, pH
[4] = test system: inguinal fat pad; conditions: 0.2 ml s.c. once into inguinal fat pad, 8 days post-injection
[5] = test system: 3T3-L1 adipocytes; experiment: Adipocyte (3T3-L1) reducing effect, MTT assay; assay type: cell-based
Protocol: Tests were performed to compare the adipocyte reducing activity of the PPC single composition and the PPC composition solubilized with bile acids. Differentiated 3T3L-1 adipocyte lines were used to observe adipocyte reduction activity, and cell viability was monitored by MTT assay. […] Materials and methods employed in the following experiments are described below. In the following, % of the composition refers to % (w/v).
The specific test methods are as follows. […] The cells were washed twice with PBS, treated with MTT reagent (50 μl) and left at 37° C. for 2 hours. After removing the supernatant, MTT formazan crystals were dissolved in DMSO and the absorbance was measured at 540 nm using a microplate reader.
The 3T3-L1 adipocyte (ATCC) was cultured in Dulbecco's modified eagle medium (DMEM) (Invitrogen) supplemented with 10% fetal bovine serum, 100 units/ml penicillin and 100 μg/ml streptomycin under the condition of 5% CO2 and 37° C. […] Subsequently, the medium was replaced with DMEM medium containing 1 μg/ml insulin (Sigma), and the culture medium was maintained and changed every 2 to 3 days until the degree of differentiation reaches maximum. If it took more than 7 days, the cells were kept in normal DMEM culture medium until starting the tests. […] After the cells were incubated for 3 hours under the condition of 37° C. and 5% CO2, the MTT solution was removed.

[6] = test system: tissues of the injected area (rat paw); experiment: H&E staining histological test (inflammation) of injected rat paw; assay type: in vivo, Sprague Dawley rats; conditions: for degree of inflammation (H&E) in words: rats sacrificed at 3 hours, injected paw
Protocol: The tissues of the injected area were dissected, fixed with 10% formalin, and then the specimen was prepared and images were captured using an optical microscope. The degree of inflammation was evaluated as follows.

[7] = test system: sole of the rat paws; experiment: Measurement of skin lesion (erythema) on rat paw; assay type: in vivo, Sprague Dawley rats; conditions: for skin lesion (erythema) in words: 2 hours after administration;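 on grade of skin lesion (erythema), 1 hour after administration: grades − to ++++ mean no to extremely severe erythema versus before injection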;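 on grade of skin lesion (erythema), 2 hours after administration: grades − to ++++ mean no to extremely severe erythema versus before injection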;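 on grade of skin lesion (erythema), Immediately after administration: grades − to ++++ mean no to extremely severe erythema versus before injection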
Summary of the method: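 Male Sprague Dawley rats (6 weeks, 170–200 g) received 0.1 ml test composition or PBS injected into the paw. Paw thickness measured by caliper before, immediately after, and 1 or 2 h post-injection; sole lesions photographed and graded 0–4.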

[8] = test system: Caspase 3 in 3T3-L1 adipocytes; experiment: Caspase 3 activity assay; assay type: cell-based; conditions: 0-48 hours
Protocol: The Caspase 3 activity assay was performed with the test materials to determine whether the cell death in the result of MTT assay was due to necrosis or apoptosis. The Caspase 3 specifically increases when apoptosis occurs and is a marker of apoptosis. […] The cells were then treated with 50 ul of cell lysis buffer (10 mM Tris-HCl, 10 mM NaH2PO4/NaHPO4, pH 7.5, 130 mM NaCl, 1% Triton X-100 and 10 mM sodium pyrophosphate) and left at 4° C. for […]. The supernatant was collected by centrifugation at 1000× rpm for 1 minute, and protein quantification was performed by BCA method. The 50 μl of reaction buffer (4 mM HEPES, pH 7.5, 10% glycerol, 2 mM dithiothreitol) and 0.5 μl of 4 mM DEVD-p-NA were added to each sample and reacted at 37° C. for 1 hour. Then wavelength was measured with a […] at 405 nm.

[9] = bile acid single composition 1.0% (w/v)
[10] = bile acid single composition 2.5% (w/v)
[11] = bile acid single composition 5.0% (w/v)
[12] = bile acid single composition 7.5% (w/v)

degree of edema in words ([2]; listed as GCA 1.0%): Mild and mild
degree of edema in words ([2]; listed as GCA 2.5%): moderate
degree of edema in words ([2]; listed as GCA 5.0%): Moderate
minimum molar ratio to PPC for a clear solution and mixed micelle of 10 nm or less [3]: 0.76
bile acid concentration at which stable injectable preparations can be made ([3]; based on PPC 5.0%): ≥ 2.2%
inflammation at the site of administration, dermal and epidermal tissues [4]: inflammation was clearly observed
Inflammation (H&E), BA % (w/v) 1.0 ([6]; bile acid single composition 1.0% (w/v), injected rat paw): +
Inflammation (H&E), BA % (w/v) 2.5 ([6]; bile acid single composition 2.5% (w/v), injected rat paw): ++
Inflammation (H&E), BA % (w/v) 5.0 ([6]; bile acid single composition 5.0% (w/v), injected rat paw): ++
Inflammation (H&E), BA % (w/v) 7.5 ([6]; bile acid single composition 7.5% (w/v), injected rat paw): ++
degree of inflammation (H&E) in words ([6]; listed as GCA 1.0%): Mild
degree of inflammation (H&E) in words ([6]; listed as GCA 2.5%): moderate
skin lesion (erythema) in words ([7]; listed as GCA 1.0%): None
skin lesion (erythema) in words ([7]; listed as GCA 2.5%): Mild
skin lesion (erythema) in words ([7]; listed as GCA 5.0%): Mild
skin lesion (erythema) in words ([7]; listed as GCA 7.5%): Moderate
grade of skin lesion (erythema), 1 hour after administration [7, 9]: −
grade of skin lesion (erythema), 2 hours after administration [7, 9]: −
grade of skin lesion (erythema), Immediately after administration [7, 9]: −
grade of skin lesion (erythema), 1 hour after administration [7, 10]: +
grade of skin lesion (erythema), 2 hours after administration [7, 10]: +
grade of skin lesion (erythema), Immediately after administration [7, 10]: +
grade of skin lesion (erythema), 1 hour after administration [7, 11]: +
grade of skin lesion (erythema), 2 hours after administration [7, 11]: +
grade of skin lesion (erythema), Immediately after administration [7, 11]: +
grade of skin lesion (erythema), 1 hour after administration [7, 12]: ++
grade of skin lesion (erythema), 2 hours after administration [7, 12]: ++
grade of skin lesion (erythema), Immediately after administration [7, 12]: +
SMILES: C[C@H](CCC(=O)NCC(=O)O)[C@H]1CC[C@H]2[C@@H]3[C@H](O)C[C@@H]4C[C@H](O)CC[C@]4(C)[C@H]3C[C@H](O)[C@]12C [GCA, 2-[[(4R)-4-[(3R,5S,7R,8R,9S,10S,12S,13R,14S,17R)-3,7,12-trihydroxy-10,13-dimethyl-2,3,4,5,6,7,8,9,11,12,14,15,16,17-tetradecahydro-1H-cyclopenta[a]phenanthren-17-yl]pentanoyl]amino]acetic acid]
glycerol release / cytolytic activity [1]: slightly higher cytolytic activity than at 24 hours; also recorded: slightly higher cytolytic activity than that of 24 hours
degree of edema, 1 hour after administration [2, 9]: + (mild edema [+, (the degree of swelling was 1-20% compared to before the injection)])
degree of edema, 2 hours after administration [2, 9]: + (mild edema [+, (the degree of swelling was 1-20% compared to before the injection)])
degree of edema, Immediately after administration [2, 9]: + (mild edema [+, (the degree of swelling was 1-20% compared to before the injection)])
degree of edema, 1 hour after administration [2, 10]: ++ (moderate edema [++, (the degree of swelling was 20-40% compared to before the injection)])
degree of edema, 2 hours after administration [2, 10]: ++ (moderate edema [++, (the degree of swelling was 20-40% compared to before the injection)])
degree of edema, Immediately after administration [2, 10]: ++ (moderate edema [++, (the degree of swelling was 20-40% compared to before the injection)])
degree of edema, 1 hour after administration [2, 11]: ++ (moderate edema [++, (the degree of swelling was 20-40% compared to before the injection)])
degree of edema, 2 hours after administration [2, 11]: ++ (moderate edema [++, (the degree of swelling was 20-40% compared to before the injection)])
degree of edema, Immediately after administration [2, 11]: ++ (moderate edema [++, (the degree of swelling was 20-40% compared to before the injection)])
degree of edema, 1 hour after administration [2, 12]: ++++ (extremely severe edema [++++, (the degree of swelling was 60% or more compared to before the injection)])
degree of edema, 2 hours after administration [2, 12]: ++++ (extremely severe edema [++++, (the degree of swelling was 60% or more compared to before the injection)])
degree of edema, Immediately after administration [2, 12]: ++ (moderate edema [++, (the degree of swelling was 20-40% compared to before the injection)])
histological change of adipocytes in fat tissue [4]: clear cell membrane boundary and a well-formed cell shape
adipocyte viability / adipocyte-reducing activity ([5]; 24 to 96 hours, various concentrations): reduced adipocyte viability in time and concentration dependent manner
adipocyte-reducing effect at the same PPC concentration ([5]; after 96 hours, FIGS. 7F to 7H): lower adipocyte-reducing effect than PPC+GCA
caspase-3 activity [8]: no time or concentration-dependent change
